These results are taken from ChEMBL document CHEMBL3132829, “Optimization of triazole-based TGR5 agonists towards orally available agents” (Medchemcomm, 2013).

The bioavailability is the share of a dose that reaches the circulation, judged against a reference dose that is usually intravenous. Read a high bioavailability as good availability. The Cmax is the maximum level reached in the sampled fluid or tissue. The half-life is how long it takes for the measured level to halve. Read a low half-life as fast loss. The Tmax is the time at which the peak concentration occurs.

What all share (format): ADME, organism-based, Canis lupus familiaris
Data set [1] can be described thus: Oral bioavailability in beagle dog at 3 mg/kg by LC-MS/MS analysis. As to conditions: in vivo.
The nature of data set [2]: Volume of distribution at steady state in beagle dog at 1 mg/kg, iv and 3 mg/kg, po by LC-MS/MS analysis. To be noted: in vivo, read-out: Vdss.
A short description of data set [3]: Cmax in beagle dog at 1 mg/kg, iv and 3 mg/kg, po by LC-MS/MS analysis. As to conditions: in vivo.
The nature of data set [4]: Half life in beagle dog at 1 mg/kg, iv and 3 mg/kg, po by LC-MS/MS analysis. As to conditions: in vivo.
Data set [5] is described as follows: Tmax in beagle dog at 1 mg/kg, iv and 3 mg/kg, po by LC-MS/MS analysis. As to conditions: in vivo.

As for `COc1cccc(-n2nnc(C3CC3)c2C(=O)N(C)c2ccc(C#N)cc2)c1`, the bioavailability in data set [1] was 17%. For the same compound, in data set [2], the Vd turned out to be 4.6 L/kg. The compound also had a Cmax in data set [3] of 510 nM. In data set [4], this compound had a half-life of 4.7 h. In data set [5], the Tmax amounted to 0.25 h.
